Source: ChEMBL document CHEMBL1155991, “Discovery of isoxazole voltage gated sodium channel blockers for treatment of chronic pain” (Bioorg Med Chem Lett, 2009)
pIC50: −log10 of the molar value.

Columns and labels:
[1] = biological target: T1, Sodium channel protein type 9 subunit alpha (Homo sapiens, UniProt Q15858); assay: Inhibition of human Nav1.7 channel expressed in HEK293 cells by FRET assay; assay type: cell-based
Target sequence in this assay (Q15858 whole entry): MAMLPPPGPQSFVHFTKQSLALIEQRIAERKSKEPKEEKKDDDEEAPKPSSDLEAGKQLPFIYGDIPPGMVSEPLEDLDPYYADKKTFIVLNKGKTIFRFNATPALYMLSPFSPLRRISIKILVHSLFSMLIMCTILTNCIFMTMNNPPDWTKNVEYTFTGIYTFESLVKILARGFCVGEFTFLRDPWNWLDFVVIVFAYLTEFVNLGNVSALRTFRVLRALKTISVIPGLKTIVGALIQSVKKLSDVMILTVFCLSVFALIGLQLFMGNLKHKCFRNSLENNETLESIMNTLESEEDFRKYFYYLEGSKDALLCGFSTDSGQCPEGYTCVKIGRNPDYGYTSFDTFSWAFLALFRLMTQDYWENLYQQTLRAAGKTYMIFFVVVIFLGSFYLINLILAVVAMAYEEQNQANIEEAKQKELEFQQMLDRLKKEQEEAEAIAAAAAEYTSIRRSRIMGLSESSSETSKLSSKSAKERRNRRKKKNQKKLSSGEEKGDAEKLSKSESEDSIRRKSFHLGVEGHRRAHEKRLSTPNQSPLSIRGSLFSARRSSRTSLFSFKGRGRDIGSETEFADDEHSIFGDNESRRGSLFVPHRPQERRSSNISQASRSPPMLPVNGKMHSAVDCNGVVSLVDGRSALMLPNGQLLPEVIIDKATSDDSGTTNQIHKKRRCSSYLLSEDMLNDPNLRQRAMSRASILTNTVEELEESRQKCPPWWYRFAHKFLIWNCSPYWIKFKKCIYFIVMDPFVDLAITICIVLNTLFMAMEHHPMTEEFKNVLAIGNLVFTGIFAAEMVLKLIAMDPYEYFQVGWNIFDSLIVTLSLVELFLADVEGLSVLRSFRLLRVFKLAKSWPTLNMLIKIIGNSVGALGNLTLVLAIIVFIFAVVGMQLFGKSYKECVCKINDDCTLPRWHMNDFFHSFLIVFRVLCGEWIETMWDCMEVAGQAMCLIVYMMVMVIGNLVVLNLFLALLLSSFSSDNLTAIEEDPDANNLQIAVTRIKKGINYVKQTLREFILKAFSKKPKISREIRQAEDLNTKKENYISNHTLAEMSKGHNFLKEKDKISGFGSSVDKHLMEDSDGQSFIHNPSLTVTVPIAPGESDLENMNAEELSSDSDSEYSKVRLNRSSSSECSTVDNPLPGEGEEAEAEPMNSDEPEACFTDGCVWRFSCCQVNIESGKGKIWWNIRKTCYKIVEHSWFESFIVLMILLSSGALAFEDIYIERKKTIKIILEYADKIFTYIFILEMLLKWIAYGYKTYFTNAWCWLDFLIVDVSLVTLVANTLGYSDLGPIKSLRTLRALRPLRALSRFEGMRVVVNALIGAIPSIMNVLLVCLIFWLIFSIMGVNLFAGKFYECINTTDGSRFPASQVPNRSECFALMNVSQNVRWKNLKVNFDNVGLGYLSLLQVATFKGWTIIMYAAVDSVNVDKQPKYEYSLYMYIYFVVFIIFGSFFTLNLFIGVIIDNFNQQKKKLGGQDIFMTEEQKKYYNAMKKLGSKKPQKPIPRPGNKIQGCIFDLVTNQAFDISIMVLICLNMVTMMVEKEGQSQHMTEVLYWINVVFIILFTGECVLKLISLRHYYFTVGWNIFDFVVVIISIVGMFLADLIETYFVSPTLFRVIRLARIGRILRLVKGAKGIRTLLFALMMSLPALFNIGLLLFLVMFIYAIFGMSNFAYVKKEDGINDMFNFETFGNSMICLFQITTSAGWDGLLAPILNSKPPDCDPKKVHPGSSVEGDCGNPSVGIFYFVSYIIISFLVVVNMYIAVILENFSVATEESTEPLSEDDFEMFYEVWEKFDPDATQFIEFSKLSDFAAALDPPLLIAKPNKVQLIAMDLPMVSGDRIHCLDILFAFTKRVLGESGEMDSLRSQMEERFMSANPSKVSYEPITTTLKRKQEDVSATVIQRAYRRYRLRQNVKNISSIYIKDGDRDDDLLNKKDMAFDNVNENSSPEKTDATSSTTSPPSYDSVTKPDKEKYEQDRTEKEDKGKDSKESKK

hERG (KCNH2) = hERG (KCNH2) (Homo sapiens, UniProt Q12809); assay: (§1) Displacement of [35S]MK-0499 from human ERG expressed in HEK293 cells at 10 uM […]; assay type: cell-based; details: HEK293 cells expressing human ERG, probe [35S]MK-0499
[2] = biological target: T1, Sodium channel protein type 9 subunit alpha; assay: Inhibition of human Nav1.7 channel expressed in HEK293 cells at 1 uM by FRET assay; assay type: cell-based
Target sequence in this assay (Q15858 whole entry, looked up): as the sequence (Q15858 whole entry) above

Rattus norvegicus [3] = assay: Analgesic activity in SNL rat neuropathic pain model assessed as reversal of allodynia at 10 mg/kg, po after 4 hrs; assay type: functional
Rattus norvegicus [4] = assay: Analgesic activity in SNL rat neuropathic pain model assessed as reversal of allodynia at 10 mg/kg, po after 3 hrs; assay type: functional
Rattus norvegicus [5] = assay: Analgesic activity in SNL rat neuropathic pain model assessed as reversal of allodynia at 10 mg/kg, po after 2 hrs; assay type: functional
[6] = Plasma clearance in Sprague-Dawley rat at 1 mg/kg, iv or 3 mg/kg, po; assay type: ADME, organism-based
[7] = Oral bioavailability in Sprague-Dawley rat at 3 mg/kg; assay type: ADME, organism-based; details: in vivo
[8] = Half life in Sprague-Dawley rat at 1 mg/kg, iv or 3 mg/kg, po; assay type: ADME, organism-based; details: in vivo
[9] = biological target: Voltage-gated inwardly rectifying potassium channel KCNH2 (Homo sapiens, UniProt Q12809); assay: as §1; assay type: cell-based; details: hek293, 10 µM, 10 µM
Voltage-gated inwardly rectifying potassium channel KCNH2, sequence (Q12809 whole entry): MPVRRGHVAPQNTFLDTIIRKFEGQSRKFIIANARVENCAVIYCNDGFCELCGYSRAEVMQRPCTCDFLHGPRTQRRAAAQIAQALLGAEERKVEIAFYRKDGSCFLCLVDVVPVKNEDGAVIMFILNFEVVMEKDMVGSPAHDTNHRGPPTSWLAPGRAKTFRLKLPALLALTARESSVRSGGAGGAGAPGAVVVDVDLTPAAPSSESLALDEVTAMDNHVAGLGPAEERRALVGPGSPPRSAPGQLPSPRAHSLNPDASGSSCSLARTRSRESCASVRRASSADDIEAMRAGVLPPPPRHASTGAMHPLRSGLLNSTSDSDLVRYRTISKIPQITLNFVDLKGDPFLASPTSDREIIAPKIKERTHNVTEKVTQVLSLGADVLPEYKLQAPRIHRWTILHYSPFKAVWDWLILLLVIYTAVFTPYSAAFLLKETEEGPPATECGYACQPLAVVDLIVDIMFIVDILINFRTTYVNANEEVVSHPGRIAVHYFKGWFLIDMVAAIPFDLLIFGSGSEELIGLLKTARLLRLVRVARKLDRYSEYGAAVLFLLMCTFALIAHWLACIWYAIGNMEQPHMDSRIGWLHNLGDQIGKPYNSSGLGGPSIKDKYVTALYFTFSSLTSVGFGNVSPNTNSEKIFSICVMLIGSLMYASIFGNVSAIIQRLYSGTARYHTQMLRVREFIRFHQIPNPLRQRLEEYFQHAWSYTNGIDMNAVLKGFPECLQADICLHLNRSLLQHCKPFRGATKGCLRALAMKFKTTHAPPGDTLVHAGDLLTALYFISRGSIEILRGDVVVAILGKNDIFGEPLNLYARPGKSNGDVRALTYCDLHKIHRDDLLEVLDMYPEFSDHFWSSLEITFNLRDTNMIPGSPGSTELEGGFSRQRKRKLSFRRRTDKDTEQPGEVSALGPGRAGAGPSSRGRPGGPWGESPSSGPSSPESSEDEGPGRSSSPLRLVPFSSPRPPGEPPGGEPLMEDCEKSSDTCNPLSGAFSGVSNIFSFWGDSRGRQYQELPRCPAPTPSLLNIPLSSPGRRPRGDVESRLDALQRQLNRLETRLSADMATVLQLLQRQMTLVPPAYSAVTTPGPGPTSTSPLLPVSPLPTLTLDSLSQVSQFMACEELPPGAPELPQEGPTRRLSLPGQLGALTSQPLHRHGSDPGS

hERG (KCNH2), sequence (Q12809 whole entry): as above

Row | pIC50 [1] | Compound | inhibition at 10 µM (hERG (KCNH2)) | other results
1 | 6.23 | O=C(NC1(c2cccc(C(F)(F)F)c2)CCC1)[C@@H]1CCC[C@H]1c1cc(-c2ccccc2)on1 | 89% | –
2 | 6.89 | O=C(NC1(c2ccccc2)CCC1)[C@@H]1CCC[C@H]1c1cc(-c2ccc(O)cc2)on1 | 15% | –
3 | 6.37 | O=C(NC1(c2ccccc2)CCC1)[C@@H]1CCC[C@H]1c1cc(-c2cccc(C(F)(F)F)c2O)on1 (stereo in doubt; 30a) | – | –
4 | 6.42 | COC1CC(NC(=O)[C@@H]2CCC[C@H]2c2cc(-c3ccccc3)on2)(c2ccccc2)C1 (some centres undefined) | 51% | –
5 | 6.74 | COc1ccc(-c2cc([C@@H]3CCC[C@H]3C(=O)NC3(c4ccccc4)CCC3)no2)cc1 | 44% | –
6 | 6.96 | O=C(NC1(c2cccc(F)c2)CCC1)[C@@H]1CCC[C@H]1c1cc(-c2ccccc2)on1 | 64% | –
7 | – | O=C(NC1(c2ccccc2)CC(F)(F)C1)[C@@H]1CCC[C@H]1c1cc(-c2ccccc2)on1 | 27% | inhibition [2]: 41%
8 | 6.92 | O=C(NC1(c2ccccc2)CCC1)[C@@H]1CCC[C@H]1c1cc(-c2ccccc2)on1 | 37% | –
9 | 6.66 | O=C(NC1(c2ccccc2)CCCC1)[C@@H]1CCC[C@H]1c1cc(-c2ccccc2)on1 | 85% | –
10 | – | CC1(c2ccccc2)CC([C@@H]2CCC[C@H]2C(=O)NC2(c3ccccc3)CCC2)=NO1 (some centres undefined) | – | inhibition [2]: 8%
11 | 6.41 | COc1ccccc1-c1cc([C@@H]2CCC[C@H]2C(=O)NC2(c3ccccc3)CCC2)no1 | 54% | –
12 | 7.70 | COc1cccc(-c2cc([C@@H]3CCC[C@H]3C(=O)NC3(c4ccccc4)CCC3)no2)c1 | 62% | –
13 | 6.47 | O=C(NC1(c2ccccc2)CCC1)[C@@H]1CCC[C@H]1c1cc(-c2cccc(C(F)(F)F)c2O)on1 (stereo in doubt; 30) | 45% | –
14 | 6.72 | COc1cccc(-c2cc([C@@H]3CCC[C@H]3C(=O)NC3(c4ccccc4)CCC3)no2)n1 | 54% | –
15 | 6.13 | O=C(NC1(c2ccccc2)CCC1)[C@@H]1CCC[C@H]1c1cc(-c2ccccc2C(F)(F)F)on1 | 91% | –
16 | 6.74 | O=C(NC1(c2ccccc2)CCC1)[C@@H]1CCC[C@H]1c1cc(-c2ccccc2Cl)on1 | 76% | –
17 | 7.08 | O=C(NC1(c2ccc(F)cc2)CCC1)[C@@H]1CCC[C@H]1c1cc(-c2ccccc2)on1 | 81% | –
18 | < 5.00 | O=C(NC1(c2ccccc2)CCC1)[C@@H]1CCC[C@H]1c1cc(-c2cccc(C(F)(F)F)c2O)on1 (stereo in doubt; 30b) | – | –
19 | – | O=C(NC1(c2ccccc2)CCC1)[C@@H]1CCC[C@H]1c1cc(-c2ccccc2O)on1 | 54% | inhibition [2]: 44%

Row | pIC50 [1] | Compound | inhibition at 10 µM (hERG (KCNH2)) | other results
20 | – | O=C(NC1(c2ccccc2)CCC1)[C@@H]1CCC[C@H]1c1cc(-c2cc(C(F)(F)F)ccc2O)on1 | – | inhibition [2]: 1%
21 | 5.77 | CC(NC(=O)[C@@H]1CCC[C@H]1c1cc(-c2ccccc2)on1)c1ccccc1 (some centres undefined) | 47% | –
22 | < 5.30 | O=C(NC1(c2ccccc2)CC(O)C1)[C@@H]1CCC[C@H]1c1cc(-c2ccccc2)on1 (some centres undefined) | – | –
23 | – | O=C(NC1(c2ccccc2)CCC1)[C@@H]1CCC[C@H]1c1cc(-c2cccc(=O)[nH]2)on1 | – | inhibition [2]: 0%
24 | 6.35 | O=C(NC1(c2ccccc2F)CCC1)[C@@H]1CCC[C@H]1c1cc(-c2ccccc2)on1 | 40% | –
25 | – | O=C(NCc1ccccc1)[C@@H]1CCC[C@H]1c1cc(-c2ccccc2)on1 | 35% | inhibition [2]: 37%
26 | – | CN(Cc1ccc(-c2ccccc2S(N)(=O)=O)cc1)C(=O)[C@@H]1CCC[C@H]1C(=O)NCc1ccc(OC(F)(F)F)cc1 | – | Activity (Rattus norvegicus [3]): 28%; Activity (Rattus norvegicus [4]): 35%; Activity (Rattus norvegicus [5]): 30%
27 | 6.24 | O=C(NC1(c2ccccc2)CCCCC1)[C@@H]1CCC[C@H]1c1cc(-c2ccccc2)on1 | – | –
28 | 6.59 | O=C(NC1(c2ccccc2)CCC1)[C@@H]1CCC[C@H]1c1cc(-c2cccc(OC(F)(F)F)c2O)on1 | 47% | –
29 | 6.66 | O=C(NC1(c2ccccc2)CCC1)[C@@H]1CCC[C@H]1c1cc(-c2cccc(C(F)(F)F)n2)on1 | 22% | clearance [6]: 135 mL/min/kg; bioavailability [7]: 36%; half-life [8]: 1.51 h
30 | 6.36 | O=C(NC1(c2ccccc2)CC1)[C@@H]1CCC[C@H]1c1cc(-c2ccccc2)on1 | 47% | –
31 | 6.52 | O=C(NC1(c2ccccc2)CCC1)[C@@H]1CCC[C@H]1c1cc(-c2ccc(C(F)(F)F)cc2O)on1 | 72% | –
32 | 6.74 | O=C(NC1(c2ccccc2)CC(F)C1)[C@@H]1CCC[C@H]1c1cc(-c2ccccc2)on1 (stereo in doubt; 17) | 46% | –
33 | 6.80 | O=C(NC1(c2ccccc2)CC(F)C1)[C@@H]1CCC[C@H]1c1cc(-c2ccccc2)on1 (stereo in doubt; 18) | – | inhibition (INH) [9]: 59%
34 | 6.43 | O=C(NC1(c2ccccc2)CCC1)[C@@H]1CCC[C@H]1c1cc(-c2cccc(OC(F)(F)F)c2)on1 | 55% | clearance [6]: 89 mL/min/kg; bioavailability [7]: 46%; half-life [8]: 2.6 h
35 | – | O=C(NC1(c2ccccc2)CCC1)[C@@H]1CCC[C@H]1c1cc(-c2ccc(O)c(C(F)(F)F)c2)on1 | – | inhibition [2]: 0%
36 | 6.68 | O=C(NC1(c2ccccc2)CCC1)[C@@H]1CCC[C@H]1c1cc(-c2cccc(O)c2)on1 | 64% | –
37 | – | O=C(NC1(c2ccccc2)CCC1)[C@@H]1CCC[C@H]1c1cc(-c2c(O)cccc2C(F)(F)F)on1 | – | inhibition [2]: 1%

Row | Compound | pIC50 [1] | inhibition at 10 µM (hERG (KCNH2)) | other results
38 | CC(C)(NC(=O)[C@@H]1CCC[C@H]1c1cc(-c2ccccc2)on1)c1ccccc1 | 6.37 | 45% | –
